29 molecules from ChEMBL document CHEMBL1136629, “Amphipathic 3-phenyl-7-propylbenzisoxazoles; human pPaR gamma, delta and alpha agonists” (Bioorg Med Chem Lett, 2003) can be followed below.

As a reminder, the Ki is the equilibrium dissociation constant of an inhibitor or competing ligand from its target. A low value points to tighter binding. The term EC50 denotes the concentration at which the effect is half-maximal. Read a high EC50 as weaker potency.

Assay [1] concerns the target T1, Peroxisome proliferator-activated receptor delta (Homo sapiens, UniProt Q03181).
T1 sequence (Q03181 whole entry): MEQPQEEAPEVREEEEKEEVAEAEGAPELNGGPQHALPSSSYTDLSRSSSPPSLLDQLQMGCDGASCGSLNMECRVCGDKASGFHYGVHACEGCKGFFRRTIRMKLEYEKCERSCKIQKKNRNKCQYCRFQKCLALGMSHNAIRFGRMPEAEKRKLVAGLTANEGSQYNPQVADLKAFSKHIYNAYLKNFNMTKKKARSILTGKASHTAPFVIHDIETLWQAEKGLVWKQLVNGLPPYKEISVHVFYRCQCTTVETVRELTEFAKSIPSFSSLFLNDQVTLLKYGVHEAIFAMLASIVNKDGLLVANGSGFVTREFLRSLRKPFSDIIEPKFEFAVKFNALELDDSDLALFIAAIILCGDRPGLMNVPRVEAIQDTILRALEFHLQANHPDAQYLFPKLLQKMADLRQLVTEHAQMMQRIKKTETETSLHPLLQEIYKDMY
Description: In vitro binding affinity towards human peroxisome proliferator activated receptor delta (PPAR delta)

Assay [2] deals with T2, Peroxisome proliferator-activated receptor gamma (Homo sapiens, UniProt P37231).
T2 sequence (P37231 whole entry): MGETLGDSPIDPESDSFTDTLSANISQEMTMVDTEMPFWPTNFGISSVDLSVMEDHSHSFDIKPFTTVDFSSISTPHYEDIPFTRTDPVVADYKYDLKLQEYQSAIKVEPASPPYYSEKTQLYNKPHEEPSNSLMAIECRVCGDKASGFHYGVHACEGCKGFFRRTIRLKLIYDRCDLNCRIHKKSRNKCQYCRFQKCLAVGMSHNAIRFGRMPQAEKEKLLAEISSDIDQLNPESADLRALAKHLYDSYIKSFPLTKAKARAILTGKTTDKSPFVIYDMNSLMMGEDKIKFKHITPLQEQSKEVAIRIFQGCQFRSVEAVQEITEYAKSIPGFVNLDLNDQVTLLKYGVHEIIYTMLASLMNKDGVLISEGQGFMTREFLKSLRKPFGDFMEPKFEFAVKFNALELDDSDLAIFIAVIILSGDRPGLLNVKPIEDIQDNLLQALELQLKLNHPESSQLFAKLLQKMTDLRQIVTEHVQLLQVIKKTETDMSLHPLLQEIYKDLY
Description: In vitro binding affinity towards human peroxisome proliferator activated receptor gamma (PPAR gamma).

For assay [3], the target named is T3, Peroxisome proliferator-activated receptor alpha (Homo sapiens, UniProt Q07869).
T3 sequence (Q07869 whole entry): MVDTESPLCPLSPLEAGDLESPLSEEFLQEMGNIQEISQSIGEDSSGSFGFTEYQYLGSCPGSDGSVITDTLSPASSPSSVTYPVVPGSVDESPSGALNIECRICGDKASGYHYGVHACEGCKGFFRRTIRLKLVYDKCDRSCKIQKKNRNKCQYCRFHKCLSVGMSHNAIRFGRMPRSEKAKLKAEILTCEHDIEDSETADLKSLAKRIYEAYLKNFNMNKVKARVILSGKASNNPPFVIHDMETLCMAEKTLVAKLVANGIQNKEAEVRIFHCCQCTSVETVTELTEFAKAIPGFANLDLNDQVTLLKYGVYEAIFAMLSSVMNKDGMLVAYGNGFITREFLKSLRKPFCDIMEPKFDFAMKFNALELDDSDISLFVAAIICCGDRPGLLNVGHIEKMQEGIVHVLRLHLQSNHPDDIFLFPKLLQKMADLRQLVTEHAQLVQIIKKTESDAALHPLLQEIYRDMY
Description: In vitro binding affinity towards human peroxisome proliferator activated receptor alpha (PPAR alpha).

Assay [4] addresses T2, Peroxisome proliferator-activated receptor gamma. As to the kind of experiment: Agonistic activity was determined in COS1 cells transfected with GAL 4-PPAR gamma receptor. The assay is classed as functional, cell-based, COS-1.
Assay [5] deals with T3, Peroxisome proliferator-activated receptor alpha. As to the kind of experiment: Agonistic activity was determined in COS1 cells transfected with GAL 4-PPAR alpha receptor. The format is functional, cell-based, COS-1.
Assay [6] addresses T1, Peroxisome proliferator-activated receptor delta. As to the kind of experiment: Agonistic activity was determined in COS1 cells transfected with GAL 4-PPAR delta receptor. The assay is classed as functional, cell-based, COS-1.
In assay [7] the target is T4, Peroxisome proliferator-activated receptor alpha (Homo sapiens) (UniProt Q07869).
T4 sequence (whole entry): T3 sequence (Q07869 whole entry)
Description: Agonistic transcriptional activity in COS1 cells expressing GAL 4-PPAR alpha at 3 uM; Maximal percent. The assay is classed as functional, cell-based. As to conditions: COS-1.

In assay [8] the target is T5, Peroxisome proliferator-activated receptor gamma (Homo sapiens) (UniProt P37231).
T5 sequence (whole entry): T2 sequence (P37231 whole entry)
Description: Agonistic transcriptional activity in COS1 cells expressing GAL 4-PPAR gamma at 3 uM; Maximal percent. The format is functional, cell-based. The following applies: COS-1.

Take `CCCc1c(OCCOc2ccc(CCC(=O)O)cc2)ccc2c(-c3ccccc3)noc12`: the Ki in assay [1] was found to be 11 nM; in assay [2], 304 nM.
Turning to `CCCc1c(OCCCOc2cccc(CCC(=O)O)c2)ccc2c(-c3ccccc3)noc12`, the results for the Ki in assay [1], in assay [3] and in assay [2] were 21 nM, 53 nM and 448 nM, respectively.
Turning to `CCCc1c(OCCCCOc2ccc(C(C)(C)CC(=O)O)cc2)ccc2c(-c3ccccc3)noc12`, the Ki in assay [1] amounted to 529 nM; in assay [3] it was 213 nM; in assay [2] it was 52 nM. The values for the EC50 in assay [4] and in assay [5] were 37 nM and 53 nM, respectively.
As for `CCCc1c(OCCCOc2ccccc2CCC(=O)O)ccc2c(-c3ccccc3)noc12`, the Ki was 3520 nM in assay [1], above 33300 nM in assay [3] and 1330 nM in assay [2].
Regarding `CCCc1c(OCCCCOc2ccc(OC(C)C(=O)O)cc2)ccc2c(-c3ccccc3)noc12` (stereo unspecified), the inhibition constant Ki in assay [1] amounted to 136 nM; in assay [3], 47 nM; in assay [2], 20 nM. Moreover, the figures for the EC50 in assay [4] and in assay [5] were 16 nM and 2 nM, respectively.
For `CCCc1c(OCCCOc2cccc(CC(=O)O)c2)ccc2c(-c3ccccc3)noc12`, the Ki in assay [1] came out at 26 nM; in assay [3] it was 76 nM; in assay [2], 662 nM.
Take `CCCc1c(OCCCCOc2cccc(C(=O)O)c2)ccc2c(-c3ccccc3)noc12`: the results for the Ki in assay [1], in assay [3] and in assay [2] were 508 nM, 5.2 nM and 100 nM, respectively. Further, the EC50 in assay [4] was found to be 193 nM; in assay [5], 8 nM.
Consider `CCCc1c(OCCCOc2ccc(OC(C)C(=O)O)cc2)ccc2c(-c3ccccc3)noc12` (stereo unspecified), for which the Ki worked out at 4.6 nM in assay [1], 9.3 nM in assay [3] and 22 nM in assay [2]. Also, the EC50 in assay [6] stood at 13 nM; in assay [4], 27 nM; in assay [5], 2 nM.
`CCCc1c(OCCCCOc2ccc(CC(=O)O)cc2)ccc2c(-c3ccccc3)noc12`: the inhibitory constant (Ki) in assay [1] was found to be 93 nM; in assay [3], 7 nM; in assay [2], 30 nM. The results for the EC50 in assay [4] and in assay [5] were 60 nM and 8 nM, respectively.
With `CCCc1c(OCCCOc2ccc(CCCC(=O)O)cc2)ccc2c(-c3ccccc3)noc12`, the Ki turned out to be 38 nM in assay [1], 121 nM in assay [3] and 145 nM in assay [2]. For the same molecule, the results for the half-maximal effective concentration (EC50) in assay [6], in assay [4] and in assay [5] were 183 nM, 156 nM and 3 nM, respectively.
`CCCc1c(OCCCCOc2cccc(OC(C)(C)C(=O)O)c2)ccc2c(-c3ccccc3)noc12`: the Ki amounted to 110 nM in assay [1], 255 nM in assay [3] and 41 nM in assay [2]. The EC50 in assay [4] was 100 nM; in assay [5], 92 nM.
Consider `CCCc1c(OCCCCOc2ccc(CC(C)(C)C(=O)O)cc2)ccc2c(-c3ccccc3)noc12`, for which the Ki in assay [1] worked out at 317 nM; in assay [3] it was 13 nM; in assay [2], 20 nM. Also, the EC50 in assay [6] amounted to 860 nM; in assay [4], 20 nM; in assay [5], 4 nM.
As to `CCCc1c(OCCCOc2ccc(OCC(=O)O)cc2)ccc2c(-c3ccccc3)noc12`, the results for the Ki in assay [1], in assay [3] and in assay [2] were 3.7 nM, 8.1 nM and 34 nM, respectively. Moreover, the EC50 in assay [6] is 16 nM; in assay [4], 75 nM; in assay [5], 4 nM.
With `CCCc1c(OCCCOc2ccc(CC(=O)O)cc2)ccc2c(-c3ccccc3)noc12`, the Ki in assay [1] amounted to 5 nM; in assay [3] it was 3 nM. In addition, the half-maximal effective concentration (EC50) worked out at 147 nM in assay [6], 194 nM in assay [4] and 3 nM in assay [5].
As to `CCCc1c(OCCCCOc2cccc(C(C)(C)C(=O)O)c2)ccc2c(-c3ccccc3)noc12`, the Ki in assay [1] amounted to 165 nM; in assay [3] it was 46 nM; in assay [2], 26 nM. Besides, the EC50 in assay [6] turned out to be 400 nM; in assay [4], 52 nM; in assay [5] it was 50 nM.
On to `CCCc1c(OCCCCOc2cccc(OCC(=O)O)c2)ccc2c(-c3ccccc3)noc12`, for which the results for the Ki in assay [1], in assay [3] and in assay [2] were 47 nM, 133 nM and 52 nM, respectively. Besides, the 50% effective concentration (EC50) worked out at 87 nM in assay [4] and 248 nM in assay [5].
The like results for `CCCc1c(OCCCCOc2ccc(C(C)(C)C(=O)O)cc2)ccc2c(-c3ccccc3)noc12` were, in that order, 203 nM, 23 nM, 17 nM, 10 nM and 2 nM.
Take `CCCc1c(OCCCCOc2ccc(CCC(=O)O)cc2)ccc2c(-c3ccccc3)noc12`: the results for the Ki in assay [1], in assay [3] and in assay [2] were 37.5 nM, 7.6 nM and 8.9 nM, respectively. Moreover, the EC50 in assay [4] turned out to be 485 nM; in assay [5], 429 nM.
As for `CCCc1c(OCCCSc2ccc(CC(=O)O)cc2Cl)ccc2c(-c3ccccc3)noc12`, the Ki in assay [1] amounted to 3.7 nM; in assay [3] it was 14 nM; in assay [2], 11 nM. Moreover, the EC50 in assay [6] came to 3 nM; in assay [4], 4 nM; in assay [5] it was 3 nM.
In the case of `CCCc1c(OCCCCOc2ccc(C(=O)O)cc2)ccc2c(-c3ccccc3)noc12`, the Ki is above 14000 nM in assay [1], 920 nM in assay [3] and above 5300 nM in assay [2].
As for `CCCc1c(OCCCOc2ccccc2CC(=O)O)ccc2c(-c3ccccc3)noc12`, the Ki in assay [1] was determined as 62 nM; in assay [3], 489 nM; in assay [2], 498 nM.
For the molecule `CCCc1c(OCCCCOc2ccc(OC(C)(C)C(=O)O)cc2)ccc2c(-c3ccccc3)noc12`, the Ki in assay [1] stood at 23 nM; in assay [2], 2.4 nM. The figures for the EC50 in assay [6] and in assay [4] were 172 nM and 2 nM, respectively.
Regarding `CN(CCOc1ccc(CC2SC(=O)NC2=O)cc1)c1ccccn1` (stereo unspecified), the activation in assay [7] came out at 3%.
With `CCCc1c(OCCOc2ccc(CCCC(=O)O)cc2)ccc2c(-c3ccccc3)noc12`, the Ki amounted to 156 nM in assay [1], 305 nM in assay [3] and 616 nM in assay [2]. The EC50 in assay [5] was determined as 33 nM. The Emax (% of standard agonist) in assay [8] was 72%.
As to `CCCc1c(OCCCCOc2ccc(/C=C/C(=O)O)cc2)ccc2c(-c3ccccc3)noc12`, the Ki stood at 265 nM in assay [1], 18 nM in assay [3] and 13 nM in assay [2]. The results for the EC50 in assay [6], in assay [4] and in assay [5] were 640 nM, 29 nM and 13 nM, respectively.
On to `CCCc1c(OCCCOc2ccc(CCC(=O)O)cc2)ccc2c(-c3ccccc3)noc12`, for which the inhibition constant (Ki) is 2 nM in assay [1], 7.3 nM in assay [3] and 32 nM in assay [2]. In assay [7], this molecule displayed an activation of 42%. Moreover, in assay [8], the Emax (% of standard agonist) is 99%.
Turning to `CCCc1c(OCCCCOc2cccc(CCC(=O)O)c2)ccc2c(-c3ccccc3)noc12`, the Ki in assay [1] was found to be 52 nM; in assay [3], 329 nM; in assay [2], 115 nM.
The like results for `CCCc1c(OCCCCOc2ccccc2CC(=O)O)ccc2c(-c3ccccc3)noc12` were, in that order, 47 nM, 86 nM and 348 nM.
For `CCCc1c(OCCCOc2ccc(/C=C/C(=O)O)cc2)ccc2c(-c3ccccc3)noc12`, the results for the Ki in assay [1], in assay [3] and in assay [2] were 18 nM, 50 nM and 152 nM, respectively. The figures for the EC50 in assay [6] and in assay [4] were 148 nM and 254 nM, respectively. In assay [7], the activation is 56%.
